From patent publication US10206878B2, “Lyophilized formulation of TAT-NR2B9C with acetylation scavenger” (NoNO Inc., priority 2014, dated 2019) come the findings set out here.

No end group written: not given here.

The data set is described as follows: Solubility study of TAT-NR2B9C, visual analysis. The following applies: pH 6.5, 35, 50, 75 and 100 mg/mL, t=0 and t=24 hours. The format is physicochemical. As for the experimental part: Due to the relatively low Tg temperatures that would likely require a longer lyophilization cycle to dry, we looked at a wider range of standard bulking agents and looked to reduce the fill volume into the container closure system so that there would be a reduced volume of liquid to lyophilize. […] Samples were visually analyzed at 35, 50, 75 and 100 mg/mL. All solutions were clear at t=0 and t=24 hours. […] A wide range of quantities may be required in a vial, but 270 mg would provide a […] dose for a 100 kg patient. Assuming the target reconstitution concentration for patient administration is still 20 mg/mL (but can be from 1 mg/ml to 100 mg/ml), then a 20-mL lyophilization vial containing 270 mg of TAT-NR2B9C can be used with a reconstitution volume of 13.5 mL. Therefore, optimal volumes of liquid for lyophilization of TAT-NR2B9C in the vial would be between 2.5 mL and 10 mL.

On to YGRKKRRQRRRKLSSIESDV [TAT-NR2B9C], for which the “solubility, visual” value reads like this: (in Histidine+Trehalose) “clear”; (in Histidine) “clear”.
